According to US10583137B2, “Triazole DAGLα inhibitors” (THE SCRIPPS RESEARCH INSTITUTE, priority 2015, dated 2020):
Where two headings read alike, the source gives them in different places.

Assays:
[1] = biological target: DAGLα (hDAGLα-FLAG) (Homo sapiens (Human), UniProt Q9Y4D2); assay: competitive ABPP, membrane proteome of transfected HEK293T cells; type: biochemical; settings: for inhibition at 0.4 µM: read-out: DAGLα % inh. 0.4 μM; for inhibition at 0.0032 µM: 3.2 nM, read-out: DAGLα % inh. 3.2 nM
Method: (§1) Compounds 19 and 20 were tested for in vitro inhibition of DAGLα and DAGLβ as measured by competitive activity-based protein profiling (ABPP) of […] using a HT-01 probe (targets DAGLα and DAGLβ) and a FP-Rh probe (targets serine hydrolases).
(§2) Briefly, membrane proteome (1 mg/ml, 20 μL) was prepared from HEK293T cells (transiently transfected with hDAGLα-FLAG or hDAGLα-S472A-FLAG, hDAGLβ-FLAG or hDAGLβ-S443A-FLAG) as described in Example 16. The proteome was incubated at room temperature with vehicle (DMSO) or compound in 0.5 μL DMSO for 30 min. The membrane proteome sample was subsequently treated for 30 min with HT-01 probe (1 μM) or FP-Rh probe (1 μM). The reactions were quenched with 10 μL 3× Laemmli sample buffer (final concentrations: 60 mM Tris-Cl pH 6.8, 2% (w/v) SDS, 10% (v/v) glycerol, 5% (v/v) (3-mercaptoethanol, 0.01% (v/v) bromophenol blue). The samples were directly loaded and resolved on SDS page gel (10% acrylamide). The gels were scanned using a ChemiDoc MP system (Cy3 settings, 605/50 filter).
(§3) The resolved proteins were transferred from the gels to a polyvinyldifluoride membrane for Western Blotting using a Trans-Blot® Turbo (BioRad). FLAG-tagged enzymes were stained using rabbit anti-FLAG as primary antibody, and goat-anti-rabbit HRP as secondary antibody. The blot was developed in the dark using a 10 mL luminal solution, 100 μL ECL enhancer and 3 μL H2O2. Chemiluminescence was visualized using a ChemiDoc XRS (BioRad).
(§4) The percentage of DAGL activity remaining in the assayed samples was determined by measuring the integrated optical intensity of the fluorescent protein bands of the Western Blot using image lab 4.1. The relative intensity was compared to the vehicle (DMSO) treated proteins, which were set to 100%. IC50 values were determined by plotting a log(inhibitor) vs. normalized response (Variable slope) dose-response curve generated using Prism software (GraphPad).

[2] = biological target: DAGLβ (hDAGLβ-FLAG) (Homo sapiens (Human), UniProt Q8NCG7); assay: as above; type: biochemical; settings: for inhibition at 0.4 µM: read-out: DAGLβ % inh. 0.4 μM; for inhibition at 0.0032 µM: read-out: DAGLβ % inh. 3.2 nM
Method: as §1, §2, §3, §4

Chain of DAGLβ (hDAGLβ-FLAG) (Q8NCG7 whole entry): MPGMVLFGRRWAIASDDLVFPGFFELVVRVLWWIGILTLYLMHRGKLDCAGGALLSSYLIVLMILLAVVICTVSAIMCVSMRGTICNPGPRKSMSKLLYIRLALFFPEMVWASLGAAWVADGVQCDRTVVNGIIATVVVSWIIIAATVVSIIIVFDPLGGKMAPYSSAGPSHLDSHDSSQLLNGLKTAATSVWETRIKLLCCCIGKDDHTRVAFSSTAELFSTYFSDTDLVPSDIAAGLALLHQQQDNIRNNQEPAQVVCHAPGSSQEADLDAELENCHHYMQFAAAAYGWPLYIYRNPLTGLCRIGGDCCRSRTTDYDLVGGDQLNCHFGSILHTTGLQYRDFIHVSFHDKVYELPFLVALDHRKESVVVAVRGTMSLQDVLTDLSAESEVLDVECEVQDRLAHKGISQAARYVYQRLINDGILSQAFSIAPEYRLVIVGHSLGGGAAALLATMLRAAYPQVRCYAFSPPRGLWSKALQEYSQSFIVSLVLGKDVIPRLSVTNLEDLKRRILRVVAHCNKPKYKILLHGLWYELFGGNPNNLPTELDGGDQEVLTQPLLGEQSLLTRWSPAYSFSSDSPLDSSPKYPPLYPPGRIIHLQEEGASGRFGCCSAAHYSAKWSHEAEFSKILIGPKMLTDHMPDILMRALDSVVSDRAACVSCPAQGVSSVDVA
Chain of DAGLα (hDAGLα-FLAG) (Q9Y4D2 whole entry): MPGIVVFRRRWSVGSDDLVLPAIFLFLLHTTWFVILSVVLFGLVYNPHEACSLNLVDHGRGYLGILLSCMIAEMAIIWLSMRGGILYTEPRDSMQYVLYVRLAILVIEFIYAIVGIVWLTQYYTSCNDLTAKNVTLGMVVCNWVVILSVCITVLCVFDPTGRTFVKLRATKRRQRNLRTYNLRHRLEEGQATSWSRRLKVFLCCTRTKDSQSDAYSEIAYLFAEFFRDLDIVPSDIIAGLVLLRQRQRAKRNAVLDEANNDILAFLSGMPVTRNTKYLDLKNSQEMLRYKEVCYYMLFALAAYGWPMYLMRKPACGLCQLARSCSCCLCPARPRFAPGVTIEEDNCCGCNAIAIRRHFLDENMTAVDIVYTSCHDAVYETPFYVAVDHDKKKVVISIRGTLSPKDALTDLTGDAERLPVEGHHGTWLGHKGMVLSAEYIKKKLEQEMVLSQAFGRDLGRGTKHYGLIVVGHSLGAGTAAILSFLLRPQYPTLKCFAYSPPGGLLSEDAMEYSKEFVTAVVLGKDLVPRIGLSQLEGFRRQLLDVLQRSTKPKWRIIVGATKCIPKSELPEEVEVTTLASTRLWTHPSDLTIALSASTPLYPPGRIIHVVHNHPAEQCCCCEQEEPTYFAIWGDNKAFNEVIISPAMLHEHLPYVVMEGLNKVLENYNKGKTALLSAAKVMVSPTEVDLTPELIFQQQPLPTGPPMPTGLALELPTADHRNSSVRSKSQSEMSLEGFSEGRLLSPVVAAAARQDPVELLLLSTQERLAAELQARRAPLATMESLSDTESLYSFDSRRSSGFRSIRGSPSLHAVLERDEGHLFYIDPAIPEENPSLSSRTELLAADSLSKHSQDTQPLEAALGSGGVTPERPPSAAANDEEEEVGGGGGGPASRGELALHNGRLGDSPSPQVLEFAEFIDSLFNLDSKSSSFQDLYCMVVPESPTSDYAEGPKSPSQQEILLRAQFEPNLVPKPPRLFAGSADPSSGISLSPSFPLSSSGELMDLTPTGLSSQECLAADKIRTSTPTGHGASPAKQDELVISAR

| Structure (SMILES) | IC50 ([1]; read-out: DAGLα IC50) [nM] | IC50 ([2]; read-out: DAGLβ IC50) [nM] | also measured |
| --- | --- | --- | --- |
| CC(C)OC(=O)N1CCN(C(=O)n2ncc(-c3ccc(OC(F)(F)F)cc3)n2)C(Cc2ccccc2)C1 (stereo not drawn) [Compound 97, isopropyl 3-benzyl-4-(4-(4-(trifluoromethoxy)phenyl)-2H-1,2,3-triazole-2-carbonyl)piperazine-1-carboxylate] | – | – | inhibition at 0.4 µM [1]: 25 to 50%; inhibition at 0.4 µM [2]: 0 to 25% |
| O=C(N1CCCCC1Cc1ccccc1)n1cc(-c2ccc(CN3CCOCC3)cc2)nn1 (stereo not drawn) [Compound 94, (2-benzylpiperidin-1-yl)(4-(4-(morpholinomethyl)phenyl)-1H-1,2,3-triazol-1-yl)methanone] | ≤ 400 | 400 to 2000 | – |
| CC(C)(C)OC(=O)N1CCN(C(=O)n2cc(-c3ccc(OC(F)(F)F)cc3)nn2)[C@H](Cc2ccccc2)C1 [Compound 100, tert-butyl (R)-3-benzyl-4-(4-(4-(trifluoromethoxy)phenyl)-1H-1,2,3-triazole-1-carbonyl)piperazine-1-carboxylate] | – | – | inhibition at 0.4 µM [1]: ≥ 75%; inhibition at 0.4 µM [2]: ≥ 75% |
| CC(C)(C)CN(CCc1ccccc1)C(=O)n1ncc(-c2ccc(OC(F)(F)F)cc2)n1 [Compound 127, N-neopentyl-N-phenethyl-4-(4-(trifluoromethoxy)phenyl)-2H-1,2,3-triazole-2-carboxamide] | 2000 to 10000 | ≤ 400 | – |
| CC(C)(C)CN(CCc1cccnc1)C(=O)n1ncc(-c2ccc(OC(F)(F)F)cc2)n1 [Compound 135, N-neopentyl-N-(2-(pyridin-3-yl)ethyl)-4-(4-(trifluoromethoxy)phenyl)-2H-1,2,3-triazole-1-carboxamide] | 400 to 2000 | 2000 to 10000 | – |
| O=C(N1CCCCC1COc1ccccc1)n1cc(-c2ccc(OC(F)(F)F)cc2)nn1 (stereo not drawn) [Compound 110, (2-(phenoxymethyl)piperidin-1-yl)(4-(4-(trifluoromethoxy)phenyl)-1H-1,2,3-triazol-1-yl)methanone] | – | – | inhibition at 0.0032 µM [1]: 0 to 25%; inhibition at 0.0032 µM [2]: 0 to 25% |
| O=C(N1C[C@H](OCC2CC2)CC[C@@H]1Cc1ccccc1)n1cc(-c2ccc(OC(F)(F)F)cc2)nn1 [Compound 120, ((2R,5R)-2-benzyl-5-(cyclopropylmethoxy)piperidin-1-yl)(4-(4-(trifluoromethoxy)phenyl)-1H-1,2,3-triazol-1-yl)methanone] | – | – | inhibition at 0.0032 µM [1]: ≥ 75%; inhibition at 0.0032 µM [2]: 25 to 50% |
| O=C(N1C[C@@H](O)C=C[C@@H]1Cc1ccccc1)n1cc(-c2ccc(OC(F)(F)F)cc2)nn1 [Compound 114, ((3S,6S)-6-benzyl-3-hydroxy-3,6-dihydropyridin-1(2H)-yl)(4-(4-(trifluoromethoxy)phenyl)-1H-1,2,3-triazol-1-yl)methanone] | – | – | inhibition at 0.0032 µM [1]: 0 to 25%; inhibition at 0.0032 µM [2]: 0 to 25% |
| O=C(N(CCc1ccccc1)C1CCC1)n1ncc(-c2ccc(OC(F)(F)F)cc2)n1 [Compound 128, N-cyclobutyl-N-phenethyl-4-(4-(trifluoromethoxy)phenyl)-2H-1,2,3-triazole-2-carboxamide] | 2000 to 10000 | 400 to 2000 | – |
| O=C(N1CCC=C[C@@H]1COCc1ccccc1)n1ncc(-c2ccc(OC(F)(F)F)cc2)n1 [Compound 107, (R)-(6-((benzyloxy)methyl)-3,6-dihydropyridin-1(2H)-yl)(4-(4-(trifluoromethoxy)phenyl)-2H-1,2,3-triazol-2-yl)methanone] | – | – | inhibition at 0.0032 µM [1]: 0 to 25%; inhibition at 0.0032 µM [2]: 0 to 25% |
| CC(C)(C)OC(=O)N1CCN(C(=O)n2cc(-c3ccc(OC(F)(F)F)cc3)nn2)[C@@H](Cc2ccccc2)C1 [Compound 102, tert-butyl (S)-3-benzyl-4-(4-(4-(trifluoromethoxy)phenyl)-1H-1,2,3-triazole-1-carbonyl)piperazine-1-carboxylate] | – | – | inhibition at 0.4 µM [1]: ≥ 75%; inhibition at 0.4 µM [2]: ≥ 75% |
| O=C(N1CCCC[C@@H]1Cc1ccccc1)n1ncc(-c2ccc(OC(F)(F)F)cc2)n1 [Compound 104, (R)-(2-benzylpiperidin-1-yl)(4-(4-(trifluoromethoxy)phenyl)-2H-1,2,3-triazol-2-yl)methanone] | – | – | inhibition at 0.0032 µM [1]: 0 to 25%; inhibition at 0.0032 µM [2]: 0 to 25% |
| O=C(N1CCCCC1Cc1ccccc1)n1cc(-c2ccc(-c3ccccn3)cc2)nn1 (stereo not drawn) [Compound 61, (2-benzylpiperidin-1-yl)(4-(4-(pyridin-2-yl)phenyl)-1H-1,2,3-triazol-1-yl)methanone] | 400 to 2000 | 2000 to 10000 | – |
| CN(C)C(=O)c1ccccc1-c1ccc(-c2cn(C(=O)N3CCCCC3Cc3ccccc3)nn2)cc1 (stereo not drawn) [Compound 77, 4′-(1-(2-benzylpiperidine-1-carbonyl)-1H-1,2,3-triazol-4-yl)-N,N-dimethyl-[1,1′-biphenyl]-2-carboxamide] | ≤ 400 | 400 to 2000 | – |

Second part, led by results:

| IC50 ([1]; read-out: DAGLα IC50) [nM] | IC50 ([2]; read-out: DAGLβ IC50) [nM] | Structure (SMILES) | also measured |
| --- | --- | --- | --- |
| 400 to 2000 | > 10000 | CNC(=O)c1cc(OC)c(-c2ccc(-c3cn(C(=O)N4CCCCC4Cc4ccccc4)nn3)cc2)c(OC)c1 (stereo not drawn) [Compound 79, 4′-(1-(2-benzylpiperidine-1-carbonyl)-1H-1,2,3-triazol-4-yl)-2,6-dimethoxy-N-methyl-[1,1′-biphenyl]-4-carboxamide] | – |
| 2000 to 10000 | > 10000 | COc1cncc(OC)c1-c1ccc(-c2cnn(C(=O)N3CCCCC3Cc3ccccc3)n2)cc1 (stereo not drawn) [Compound 70, (2-benzylpiperidin-1-yl)(4-(4-(3,5-dimethoxypyridin-4-yl)phenyl)-2H-1,2,3-triazol-2-yl)methanone] | – |
| > 10000 | 2000 to 10000 | COc1cc(OC)c(-c2cnn(C(=O)N3CCCCC3Cc3ccccc3)n2)c(OC)c1 (stereo not drawn) [Compound 85, (2-benzylpiperidin-1-yl)(4-(2,4,6-trimethoxyphenyl)-1H-1,2,3-triazol-2-yl)methanone] | – |
| ≤ 400 | 2000 to 10000 | O=C(N1CCCCC1Cc1ccccc1)n1cc(-c2ccc(-c3cccnc3)cc2)nn1 (stereo not drawn) [Compound 60, (2-benzylpiperidin-1-yl)(4-(4-(pyridin-3-yl)phenyl)-1H-1,2,3-triazol-1-yl)methanone] | – |
| 400 to 2000 | 2000 to 10000 | COc1cnccc1-c1ccc(-c2cn(C(=O)N3CCCCC3Cc3ccccc3)nn2)cc1 (stereo not drawn) [Compound 65, (2-benzylpiperidin-1-yl)(4-(4-(3-methoxypyridin-4-yl)phenyl)-1H-1,2,3-triazol-1-yl)methanone] | – |
| ≤ 400 | 2000 to 10000 | COc1cc(OC)c(-c2ccc(-c3cn(C(=O)N4CCCCC4Cc4ccccc4)nn3)cn2)c(OC)c1 (stereo not drawn) [Compound 74, (2-benzylpiperidin-1-yl)(4-(6-(2,4,6-trimethoxyphenyl)pyridin-3-yl)-1H-1,2,3-triazol-1-yl)methanone] | – |
| ≤ 400 | 400 to 2000 | Cc1cncc(C)c1-c1ccc(-c2cn(C(=O)N3CCCCC3Cc3ccccc3)nn2)cc1 (stereo not drawn) [Compound 71, (2-benzylpiperidin-1-yl)(4-(4-(3,5-dimethylpyridin-4-yl)phenyl)-1H-1,2,3-triazol-1-yl)methanone] | – |
| ≤ 400 | 2000 to 10000 | COc1cc(C)cc(OC)c1-c1ccc(-c2cn(C(=O)N3CCCCC3Cc3ccccc3)nn2)cc1 (stereo not drawn) [Compound 64, (2-benzylpiperidin-1-yl)(4-(2′,6′-dimethoxy-4′-methyl-[1,1′-biphenyl]-4-yl)-1H-1,2,3-triazol-1-yl)methanone] | – |
| ≤ 400 | ≤ 400 | O=C(N1CCCCC1Cc1ccccc1)n1cc(-c2ccc(Br)nc2)nn1 (stereo not drawn) [Compound 90, (2-benzylpiperidin-1-yl)(4-(6-bromopyridin-3-yl)-1H-1,2,3-triazol-1-yl)methanone] | – |
| ≤ 400 | 2000 to 10000 | COc1cc(C)cc(OC)c1-c1ccc(-c2cn(C(=O)N3CCCCC3Cc3ccncc3)nn2)cc1 (stereo not drawn) [Compound 68, (4-(2′,6′-dimethoxy-4′-methyl-[1,1′-biphenyl]-4-yl)-1H-1,2,3-triazol-1-yl)(2-(pyridin-4-ylmethyl)piperidin-1-yl)methanone] | – |
| ≤ 400 | ≤ 400 | COc1ncnc(OC)c1-c1ccc(-c2cn(C(=O)N3CCCCC3Cc3ccccc3)nn2)cc1 (stereo not drawn) [Compound 82, (2-benzylpiperidin-1-yl)(4-(4-(4,6-dimethoxypyrimidin-5-yl)phenyl)-1H-1,2,3-triazol-1-yl)methanone] | – |
| ≤ 400 | ≤ 400 | COc1cc(OC)c(-c2ccc(-c3cn(C(=O)N4CCCCC4Cc4ccccc4)nn3)cc2)c(OC)c1 (stereo not drawn) [Compound 20, (2-Benzylpiperidin-1-yl)(4-(2′,4′,6′-trimethoxybiphenyl-4-yl)-1H-1,2,3-triazol-1-yl)methanone] | IC50 ([1]; ABPP method, n=3, read-out: IC50, DAGLα): 16 nM; IC50 ([2]; ABPP method, n=3, read-out: IC50, DAGLβ): 319 nM |
